# Assay results from patent publication US20240246954A1, “COMPOSITIONS AND METHODS FOR INHIBITING KRAS” (TheRas, Inc., priority 2021, published 2024).
# Like-named read-outs stand apart in the source and are kept apart here.
# Key:
# [1] = target: T1, Avi-KRAS G12D/Q25A (1-169) GppNHp/3×FLAG-PI3KCA (157-299) (Homo sapiens, UniProt P01116, G12D/Q25A); assay: HTRF PI3KCA-KRAS G12D/Q25A-GppNHp disruption assay; format: biochemical; conditions: 1 h incubation
# T1 construct: Avi-KRAS G12D/Q25A (1-169) GppNHp
# How it was run: (§1)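 HTRF read-out (320 nm excitation, 615 nm emission) after two 1 h room-temperature incubations, first with protein mix, then detection reagents. Ten-point dilution series starting at 100 μM; results given as % activity relative to DMSO at 100%.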
# [2] = target: T2, Avi-KRAS G12D (1-169) GppNHp/RAF1 RBD-3×FLAG (52-151) (Homo sapiens, UniProt P01116, G12D); assay: HTRF Raf1-KRAS G12D-GppNHp disruption assay; format: biochemical; conditions: 1 h incubation
# T2 construct: Avi-KRAS G12D (1-169) GppNHp
# How it was run: as §1
# [3] = test system: pERK in GP2d cells (KRAS G12D); assay: Cell-based pERK HTRF assay; conditions: 60 min incubation
# Description: Biological Example 3. Cell-Based pERK HTRF Assay
# pERK assay (Perkin Elmer) was used to determine the effectiveness of compounds in disrupting KRAS G12D protein/effector signaling in cells.
# On Day 1, cells (GP2d) were seeded into 96-well plates at 3×10^4 cells/well in 80 μl complete growth media (DMEM, 10% FBS).
# On Day 2, cells were treated with compounds at 0.25% DMSO. The source plate was created with compounds diluted in media at 5-fold the final assay concentration. The compounds were run in a 9-point concentration curve starting at 1 μM, with a half-log dilution between concentrations. 20 μL was transferred onto the cell plates (final volume in wells was 100 μL). Plates were harvested after 60 min incubation by aspirating media and adding kit-supplied 1× supplemented lysis buffer to all wells (50 μl per well). Plates were then placed on a plate shaker and incubated at 850 rpm for an additional 30 min.
# Antibody mixture solution is prepared by diluting aliquoted d2 and Eu Cryptate antibodies 1:20 in kit supplied detection buffer, mix the diluted antibodies solutions (1:1 v:v). Four μL of this solution is then added to a 384-well detection plate (Perkin Elmer; 6008230).
# Samples were homogenized by pipetting up and down and then transferred (16 μL of cell lysates) from the 96-well cell culture plate to two wells of the HTRF 384-well detection plate containing the antibody solution. Plates were centrifuged (524 g for 1 min) and allowed to incubate between 4 and 24 h at room temperature. Maximum signal is reached after 4 h incubation time and remains stable over a period of 24 hours. Therefore, readings can be made between 4 and 24 h of incubation. Plates were centrifuged again (524 g for 1 min), then analyzed on the EnVision plate reader using the following settings: Excitation 320 nm, Bandwidth 75 nm; Emission 615 nm, Bandwidth 85 nm; Gain 100%; Flashes 100; Lag 60 μs.
# T1 sequence (P01116 1-169 isoform P01116-2 G12D/Q25A limits assumed): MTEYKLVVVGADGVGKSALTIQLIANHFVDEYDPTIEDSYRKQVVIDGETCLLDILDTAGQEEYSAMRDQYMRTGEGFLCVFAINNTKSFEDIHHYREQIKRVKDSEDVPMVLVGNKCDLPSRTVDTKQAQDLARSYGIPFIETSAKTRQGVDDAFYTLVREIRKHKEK
# T2 sequence (P01116 1-169 isoform P01116-2 G12D limits assumed): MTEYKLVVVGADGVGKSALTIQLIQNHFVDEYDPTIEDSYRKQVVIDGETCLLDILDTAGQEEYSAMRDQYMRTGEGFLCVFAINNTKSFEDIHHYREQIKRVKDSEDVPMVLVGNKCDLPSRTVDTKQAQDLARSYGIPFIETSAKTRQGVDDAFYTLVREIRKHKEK
Compound,IC50 [1],IC50 [2],"IC50 ([3]; GP2d, 1 h)",IC50 ([3]; read-out: pERK-Gp2D-1hr)
"CN(c1nc(OCC23CCCN2CCC3)nc2c(F)c(-c3ccc(F)c4sc(N)nc34)c(C(F)(F)F)cc12)[C@@H]1CCN(C(=O)CN)C1 (atropisomer, axis not shown) [Compound 276]",1000 to 10000 nM,100 to 1000 nM,> 1000 nM,–
"N#Cc1c(N)sc2c(F)ccc(-c3c(C(F)(F)F)cc4c(N5CC6CCC(C5)N6)nc(OC[C@@]56CCCN5C[C@H](F)C6)nc4c3F)c12 (single isomer, unassigned) [Compound 366]",≤ 100 nM,≤ 100 nM,≤ 100 nM,–
"N#Cc1c(N)sc2c(F)ccc(-c3c(C(F)(F)F)cc4c(N5CC6CCC(C5)N6)nc(OC[C@@]56CCCN5C[C@H](F)C6)nc4c3F)c12 (single isomer, unassigned) [Compound 367]",1000 to 10000 nM,1000 to 10000 nM,–,100 to 1000 nM
"CN(c1nc(OC[C@@]23CCCN2C[C@H](F)C3)nc2c(F)c(-c3ccc(F)c4sc(N)nc34)c(C(F)(F)F)cc12)C1CCNC1 (stereo in doubt) [Compound 322, 7-fluoro-4-(8-fluoro-2-(((2R,7aS)-2-fluorotetrahydro-1H-pyrrolizin-7a(5H)-yl)methoxy)-4-(methyl((R)-pyrrolidin-3-yl)amino)-6-(trifluoromethyl)quinazolin-7-yl)benzo[d]thiazol-2-amine]",1000 to 10000 nM,100 to 1000 nM,100 to 1000 nM,–
CN1C[C@H](F)C[C@H]1COc1nc(N2C[C@H]3NCC[C@H]32)c2cc(C(F)(F)F)c(-c3ccc(F)c4sc(N)nc34)c(F)c2n1 [Compound 174],–,1000 to 10000 nM,> 1000 nM,–
"Nc1nc2c(-c3c(Cl)cc4c(N5CC6CC(C5)N6)nc(OCC56CCCN5CCC6)nc4c3F)ccc(F)c2s1 [Compound 184, 4-(4-(3,6-diazabicyclo[3.1.1]heptan-3-yl)-6-chloro-8-fluoro-2-((tetrahydro-1H-pyrrolizin-7a(5H)-yl)methoxy)quinazolin-7-yl)-7-fluorobenzo[d]thiazol-2-amine]",1000 to 10000 nM,100 to 1000 nM,> 1000 nM,–
Nc1nc2c(-c3c(C(F)(F)F)cc4c(N5CC6CC(C5)N6)nc(OCC56CCCN5CCC6)nc4c3F)ccc(F)c2s1 [Compound 185],100 to 1000 nM,100 to 1000 nM,100 to 1000 nM,–
Nc1nc2c(-c3c(C(F)(F)F)cc4c(NC5CNC5)nc(OCC56CCCN5CCC6)nc4c3F)ccc(F)c2o1 [Compound 199],1000 to 10000 nM,100 to 1000 nM,> 1000 nM,–
C[C@@H]1CN(c2nc(OC[C@@]34CCCN3C[C@H](F)C4)nc3c(F)c(-c4ccc(F)c5sc(N)nc45)c(C(F)(F)F)cc23)[C@@H](C)CN1 [Compound 207],1000 to 10000 nM,100 to 1000 nM,≤ 100 nM,–
"Nc1nc2c(-c3c(C(F)(F)F)cc4c(N5CC6CCC(C5)N6)nc(OC[C@@]56CCCN5C[C@H](F)C6)nc4c3F)ccc(F)c2o1 [Compound 220, 4-(4-(3,8-diazabicyclo[3.2.1]octan-3-yl)-8-fluoro-2-(((2R,7aS)-2-fluorotetrahydro-1H-pyrrolizin-7a(5H)-yl)methoxy)-6-(trifluoromethyl)quinazolin-7-yl)-7-fluorobenzo[d]oxazol-2-amine]",100 to 1000 nM,100 to 1000 nM,≤ 100 nM,–
Nc1nc2c(-c3c(C(F)(F)F)cc4c(N5CC6CCC5CN6)nc(OC[C@@]56CCCN5C[C@H](F)C6)nc4c3F)ccc(F)c2s1 (stereo partly drawn) [Compound 223],100 to 1000 nM,100 to 1000 nM,≤ 100 nM,–
Nc1nc2c(-c3c(OC(F)(F)F)cc4c(N5CC6CCC(C5)N6)nc(OC[C@@]56CCCN5C[C@H](F)C6)nc4c3F)ccc(F)c2s1 [Compound 232],10000 to 30000 nM,100 to 1000 nM,≤ 100 nM,–
CN(c1nc(OC[C@@]23CCCN2C[C@H](F)C3)nc2c(F)c(-c3ccc(F)c4sc(N)nc34)c(C(F)(F)F)cc12)C1C2C[C@H]1CN2 (stereo partly drawn) [Compound 288],1000 to 10000 nM,100 to 1000 nM,–,–
C[C@@H]1CNC[C@@H]1N(C)c1nc(OC[C@@]23CCCN2C[C@H](F)C3)nc2c(F)c(-c3ccc(F)c4sc(N)nc34)c(C(F)(F)F)cc12 [Compound 292],1000 to 10000 nM,1000 to 10000 nM,–,–
Nc1nc2c(-c3c(C(F)(F)F)cc4c(N5CCC6(CNC6)C5)nc(OCC56CCCN5CCC6)nc4c3F)ccc(F)c2s1 [Compound 307],1000 to 10000 nM,100 to 1000 nM,–,–
Nc1nc2c(-c3c(C(F)(F)F)cc4c(N5CCC6(CCNC6)CC5)nc(OCC56CCCN5CCC6)nc4c3F)ccc(F)c2s1 [Compound 308],1000 to 10000 nM,100 to 1000 nM,–,–

# Second part, led by results:
IC50 [1],IC50 [2],"IC50 ([3]; GP2d, 1 h)",Compound,IC50 ([3]; read-out: pERK-Gp2D-1hr)
100 to 1000 nM,100 to 1000 nM,> 1000 nM,"CN(c1nc(OCC23CCCN2CCC3)nc2c(F)c(-c3ccc(F)c4sc(N)nc34)c(C(F)(F)F)cc12)[C@@H]1CCNC1 (single isomer, unassigned) [Compound 236]",–
1000 to 10000 nM,1000 to 10000 nM,> 1000 nM,N#CCc1cc2c(NC3CNC3)nc(OCC34CCCN3CCC4)nc2c(F)c1-c1ccc(F)c2sc(N)nc12 [Compound 126],–
1000 to 10000 nM,100 to 1000 nM,> 1000 nM,NCC(=O)N1CCN(c2nc(OCC34CCCN3CCC4)nc3c(F)c(-c4ccc(F)c5sc(N)nc45)c(C(F)(F)F)cc23)CC1 [Compound 127],–
1000 to 10000 nM,100 to 1000 nM,> 1000 nM,CN1CCC[C@H]1COc1nc(NC2CNC2)c2cc(C(F)(F)F)c(-c3ccc(F)c4sc(N)nc34)c(F)c2n1 [Compound 129],–
1000 to 10000 nM,100 to 1000 nM,> 1000 nM,CN1CCC[C@H]1COc1nc(NC2CNC2)c2cc(-c3ccoc3)c(-c3ccc(F)c4sc(N)nc34)c(F)c2n1 [Compound 133],–
1000 to 10000 nM,100 to 1000 nM,> 1000 nM,NCC(=O)N1CC(Nc2nc(OCC34CCCN3CCC4)nc3c(F)c(-c4ccc(F)c5sc(N)nc45)c(C(F)(F)F)cc23)C1 [Compound 187],–
1000 to 10000 nM,100 to 1000 nM,> 1000 nM,NC(=O)N1CC(Nc2nc(OCC34CCCN3CCC4)nc3c(F)c(-c4ccc(F)c5sc(N)nc45)c(C(F)(F)F)cc23)C1 [Compound 188],–
100 to 1000 nM,100 to 1000 nM,≤ 100 nM,Nc1nc2c(-c3c(C(F)(F)F)cc4c(N5CC6CC5CN6)nc(OC[C@@]56CCCN5C[C@H](F)C6)nc4c3F)ccc(F)c2s1 (stereo partly drawn) [Compound 226],–
100 to 1000 nM,100 to 1000 nM,> 1000 nM,Nc1nc2c(-c3c(C(F)(F)F)cc4c(NC5CNC5)nc(OC[C@@]56CCCN5C[C@H](F)C6)nc4c3F)ccc(F)c2s1 [Compound 247],–
1000 to 10000 nM,1000 to 10000 nM,–,"C[C@@H]1CN(c2nc(OC[C@@]34CCCN3C[C@H](F)C4)nc3c(F)c(-c4ccc(F)c5sc(N)nc45)c(OC(F)F)cc23)[C@@H](C)CN1 [Compound 282, 4-(6-(difluoromethoxy)-4-((2S,5R)-2,5-dimethylpiperazin-1-yl)-8-fluoro-2-(((2R,7aS)-2-fluorotetrahydro-1H-pyrrolizin-7a(5H)-yl)methoxy)quinazolin-7-yl)-7-fluorobenzo[d]thiazol-2-amine]",–
100 to 1000 nM,100 to 1000 nM,–,CO[C@@H]1C[C@@H](COc2nc(N3CC4CCC(C3)N4)c3cc(C(F)(F)F)c(-c4ccc(F)c5sc(N)nc45)c(F)c3n2)N(C)C1 [Compound 284],–
100 to 1000 nM,100 to 1000 nM,–,Nc1nc2c(-c3c(C(F)(F)F)cc4c(NC5C[C@H]6CCC5N6)nc(OCC56CCCN5CCC6)nc4c3F)ccc(F)c2s1 (stereo partly drawn) [Compound 286],–
1000 to 10000 nM,1000 to 10000 nM,–,"CC(F)(F)c1cc2c(N3CCNCC3)nc(OCC34CCCN3CCC4)nc2c(F)c1-c1ccc(F)c2sc(N)nc12 [Compound 295, 4-(6-(1,1-difluoroethyl)-8-fluoro-4-(piperazin-1-yl)-2-((tetrahydro-1H-pyrrolizin-7a(5H)-yl)methoxy)quinazolin-7-yl)-7-fluorobenzo[d]thiazol-2-amine]",–
1000 to 10000 nM,1000 to 10000 nM,–,C[C@@H]1CN(c2nc(OC[C@@]34CCCN3C[C@H](F)C4)nc3c(F)c(-c4ccc(F)c5sc(N)nc45)c(C(F)F)cc23)[C@@H](C)CN1 [Compound 302],–
10000 to 30000 nM,10000 to 30000 nM,–,CN(c1nc(OC[C@@]23CCCN2C[C@H](F)C3)nc2cc(-c3ccc(F)c4sc(N)nc34)c(C(F)(F)F)cc12)[C@H]1CNC[C@@H]1F [Compound 362],–
10000 to 30000 nM,10000 to 30000 nM,–,Fc1c(-c2ccc(F)c3scnc23)c(C(F)(F)F)cc2c(N3CC4CCC(C3)N4)nc(OCC34CCCN3CCC4)nc12 [Compound 375],–
